This is an account of results in article PMC9704499 (European journal of medicinal chemistry, 2021).

For the series, the system named is Tau0N4R-TM-tGFP U2OS cells. Nature of the series: Tau phosphorylation. Conditions: 25–100 μM, 6 hrs.

Regarding `c1ccc(CNc2nc(Nc3cc(C4CC4)[nH]n3)c3sccc3n2)cc1` [Compound 4, N2-benzyl-N4-(5-cyclopropyl-1H-pyrazol-3-yl)thieno[3,2-d]pyrimidine-2,4-diamine], the “cytotoxicity in bundle formation assay” value is “cytotoxicity effects started to appear”.
